Measured values: patent US20250332180A1, “CANNABINOIDS AND IL-15 ACTIVATE NK CELLS” (The Regents of the University of California, priority 2022, published 2025)

Tests used:
[1] = tested on: anti-proliferative effects of radiation therapy; conditions: previously reported; cited from earlier work
OSCCs [2] = assay: Cell count of viable cells (Trypan Blue, light microscope); format: cell-based, human; conditions: CDDP 50 μg/mL, 24 hours
Description: The number of viable cells was counted under light microscope using Trypan Blue staining. Compiled data from three independent experiments performed as shown.
The number of viable cells was counted under light microscope using Trypan Blue staining (Sigma, MO, USA).

OSCCs [3] = assay: Cell death assay (PI staining, flow cytometry); format: cell-based, human; conditions: CDDP 50 μg/mL, 24 hours
Description: No differences between untreated tumor cells and those treated with the DMSO vehicle alone in cell count or the amount of cell death in OSCCs and OSCSCs. […] Proportion of the live cells that had lost forward and side scatter were determined indicating decreased viability of the cells. In addition, the numbers of viable cells were determined after PI staining followed by flow cytometric analysis (FIG. 2A). OSCC tumor cells were treated as in FIG. 2A and the cells were analyzed by flow cytometry to determine the proportion of the live cells that had lost forward and side scatter indicating decreased viability of the cells (FIG. 2B) and the numbers of viable OSCC tumor cells were determined after PI staining followed by flow cytometric analysis (FIG. 2C). […] PI staining was used to determine the cell death by flow cytometry. One of four representative experiment is shown in (FIG. 2D). The compiled data of paired OSCCs and OSCSCs at the same concentration of WIN 55,212-2 treatment from four experiments is shown in (FIG. 2E). Four experiments were compiled and the % cell death of tumor cells by various WIN 55-212,2 concentrations (10, 25, 50 and 100 μM) were compared to the untreated control for both OSCC (FIG. 2F) and OSCSC (FIG. 2G). […] Non-linear regression was used to fit the curve of the % cell death induced by WIN 55-212,2 in various concentrations (10, 25, 50 and 100 μM) for both OSCC and OSCSC. […] The differences were clear within each independent experiment.
PI staining was used to determine the cell death by flow cytometry. Compiled data from four independent experiments performed is shown.

PL-12 tumor cells [4] = assay: Cell death assay (PI staining, flow cytometry); format: cell-based, human; conditions: CDDP
OSCCs [5] = assay: Microscopy of morphology and viability; format: cell-based, human; conditions: CDDP 50 μg/mL, 24 h
Description: (§1) Chemical structure of WIN 55,212-2 (FIG. 7A). […] OSCCs and OSCSCs were treated with CDDP (50 μg/mL) and different concentrations of WIN 55,212-2 for 24 hours before the microscopic images were taken. Scale bar=50 μm (FIG. 7B).

OSCSCs = assay: Microscopy of morphology and viability; format: cell-based, human; conditions: CDDP 50 μg/mL, 24 h
Description: as §1

MP2 tumor cells = assay: Microscopy of morphology and viability; format: cell-based, human; conditions: CDDP 50 μg/mL, 24 hours
Description: (§2) MP2 and PL-12 tumor cells were treated with CDDP (50 μg/mL) and different concentrations of WIN 55,212-2 for 24 hours before the microscopic images were taken. Scale bar=50 μm.

PL-12 tumor cells [6] = assay: Microscopy of morphology and viability; format: cell-based, human; conditions: CDDP 50 μg/mL, 24 hours
Description: as §2

NK cells = assay: NK cell cytotoxicity in humanized BLT mice (4-hr Chromium release assay); format: in vivo; conditions: hu-BLT mice, every 2 days for 3 weeks; WIN 55,212-2 2 mg/kg IP; IL-15 5 μg/mice IP; preliminary experiments
Description: Humanized BLT mice (hu-BLT; human-bone marrow/liver/thymus) were fed with, AJ2 (5×10^9 CFU/mice, every 2 days, Oral administration), WIN 55,212-2 (2 mg/kg, every 2 days, IP) and/or IL-15 (5 μg/mice, every 2 days, IP). After 3 weeks of treatment, immune cells were collected from peripheral blood, bone marrow and spleen, and CD3+ T cells were isolated from splenocytes with EasySep™ Human CD3 positive selection kit II (StemCell Tech.). PBMCs (0.5×10^6 cells) obtained from the peripheral blood were treated with IL-2 (1000 U/ml) and/or anti-CD16 antibody (BioLegend) (3 μg/ml) for 3 days, after which the cells were counted and different numbers of E:T ratios were used for the assessment of cytotoxicity using 4-hr Chromium release assay (FIG. 1A and FIG. 1B). The percentage specific cytotoxicity was calculated using the following formula (% cytotoxicity=(Experimental cpm/spontaneous cpm)/(total cpm−spontaneous cpm)) and the lytic unit 30 (Lu30/10^6) was calculated by using the inverse of the number of effector cells needed to lyse 30% of tumor target cells×100. Killing per % NK cells was determined by dividing the total Lytic unit 30 by the percentage of NK cells in each sample (FIG. 1A and FIG. 1B). […]

IFN-γ secretion = IFN-γ secretion of immune cells in humanized BLT mice (ELISA, ELISpot); format: in vivo; conditions: hu-BLT mice, every 2 days for 3 weeks; WIN 55,212-2 2 mg/kg IP; IL-15 5 μg/mice IP
Description: Humanized BLT mice (hu-BLT; human-bone marrow/liver/thymus) were fed with, AJ2 (5×10^9 CFU/mice, every 2 days, Oral administration), WIN 55,212-2 (2 mg/kg, every 2 days, IP) and/or IL-15 (5 μg/mice, every 2 days, IP). After 3 weeks of treatment, immune cells were collected from peripheral blood, bone marrow and spleen, and CD3+ T cells were isolated from splenocytes with EasySep™ Human CD3 positive selection kit II (StemCell Tech.). PBMCs (0.5×10^6 cells) obtained from the peripheral blood were treated with IL-2 (1000 U/ml) and/or anti-CD16 antibody (BioLegend) (3 μg/ml) for 3 days, after which the cells were counted and different numbers of E:T ratios were used for the assessment of cytotoxicity using 4-hr Chromium release assay (FIG. 1A and FIG. 1B). The percentage specific cytotoxicity was calculated using the following formula (% cytotoxicity=(Experimental cpm/spontaneous cpm)/(total cpm−spontaneous cpm)) and the lytic unit 30 (Lu30/10^6) was calculated by using the inverse of the number of effector cells needed to lyse 30% of tumor target cells×100. Killing per % NK cells was determined by dividing the total Lytic unit 30 by the percentage of NK cells in each sample (FIG. 1A and FIG. 1B). PBMCs (0.5×10^6 cells) obtained from the blood were treated with IL-2 (1000 U/ml) and/or anti-CD16 antibody (BioLegend) (3 μg/ml) for 24 hours, after which the supernatants were collected to measure IFN-g secretion using ELISA (BioLegend, San Diego) (FIG. 1C). ELISpot was used to determine the IFN-γ spots in PBMC (FIG. 1D), bone marrow (FIG. 1E), spleen (FIG. 1F) and CD3+ T cells (FIG. 1G).
Humanized BLT mice (hu-BLT; human-bone marrow/liver/thymus) were fed with, AJ2 (5×10^9 CFU/mice, every 2 days, Oral administration), WIN 55,212-2 (2 mg/kg, every 2 days, IP) and/or IL-15 (5 μg/mice, every 2 days, IP). After 3 weeks of treatment, immune cells were collected from peripheral blood, bone marrow and spleen, and CD3+ T cells were isolated from splenocytes with EasySep™ Human CD3 positive selection kit II (StemCell Tech.). PBMCs (0.5×10^6 cells) obtained from the peripheral blood were treated with IL-2 (1000 U/ml) and/or anti-CD16 antibody (BioLegend) (3 μg/ml) for 3 days, after which the cells were counted and different numbers of E:T ratios were used for the assessment of cytotoxicity using 4-hr Chromium release assay (FIG. 6A and FIG. 6B). The percentage specific cytotoxicity was calculated using the following formula (% cytotoxicity=(Experimental cpm/spontaneous cpm)/(total cpm−spontaneous cpm)) and the lytic unit 30 (Lu30/10^6) was calculated by using the inverse of the number of effector cells needed to lyse 30% of tumor target cells×100. Killing per % NK cells was determined by dividing the total Lytic unit 30 by the percentage of NK cells in each sample (FIG. 6A and FIG. 6B). PBMCs (0.5×10^6 cells) obtained from the blood were treated with IL-2 (1000 U/ml) and/or anti-CD16 antibody (BioLegend) (3 μg/ml) for 24 hours, after which the supernatants were collected to measure IFN-g secretion using ELISA (BioLegend, San Diego) (FIG. 6C). ELISpot was used to determine the IFN-γ spots in PBMC (FIG. 6D), bone marrow (FIG. 6E), spleen (FIG. 6F) and CD3+ T cells (FIG. 6G).

C=C(C)[C@@H]1CCC(C)=C[C@H]1c1c(O)cc(CCCCC)cc1O [CBD]
enhancement of anti-proliferative effects of radiation therapy [1]: failed to enhance

N.N.[Cl][Pt][Cl] [CDDP, cis-diamminedichloridoplatinum(II)]
inhibition of cell growth, OSCCs compared with OSCSCs (OSCCs [2]): inhibit cell growth of OSCCs more than those seen with OSCSCs | cell death, OSCCs compared with OSCSCs (OSCCs [3]): triggered more cell death in OSCCs when compared to OSCSCs | cell death, PL-12 compared with MP2 (PL-12 tumor cells [4]; compiled data): similar | cell death, PL-12 compared with MP2 (PL-12 tumor cells [4]; representative experiment): higher in PL-12 | morphology and attachment (OSCCs [5]): loss of morphology, and the majority were detached from the plates | morphology and attachment (OSCSCs): the majority of these cells were still attached to the cell culture plate | morphology (MP2 tumor cells): affected both PL-12 and MP2 tumors morphologically | morphology (PL-12 tumor cells [6]): affected both PL-12 and MP2 tumors morphologically

CCCCCc1cc(O)c2c(c1)OC(C)(C)[C@@H]1CCC(C)=C[C@@H]21 [THC, tetrahydrocannabinol]
enhancement of anti-proliferative effects of radiation therapy [1]: failed to enhance

CCCCCCC(C)(C)c1cc(O)c2c(c1)OC(C)(C)C1CCC(=O)CC21 (stereo not shown) [nabilone]
enhancement of anti-proliferative effects of radiation therapy [1]: failed to enhance

IL-15: IL-15, given by intraperitoneal injection 5 μg/mice
cytotoxic function of NK cells in PBMC (NK cells): increased the NK cytotoxicity | IFN-γ secretion (ELISA, PBMCs) (IFN-γ secretion): increased
